Patent US8192962B2, “Processes for detecting toxic substances” (Daikin Industries, Ltd., priority 2001, dated 2012)

Test system: Metabolism protein genes
Test: DNA chip mRNA expression in yeast, metabolism protein genes (Table 7)
Type: cell-based, Saccharomyces cerevisiae S288C
In short: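 Untreated cultures served as reference for log-phase S288C yeast given a growth-inhibiting, non-lethal toxicant dose for 2 h at 25° C. in YPD. Gene expression was measured on a whole-genome DNA chip from Cy3/Cy5-labeled cDNA.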

C=CC=O [(14), acrolein]
level of expressed mRNA in the presence/in the absence of chemical substance (yeast gene YKL060C): 0.8 | The level of expressed mRNA in the presence of chemical substance/The level of expressed mRNA in the absence of chemical substance (yeast gene YKL091C): 1.5 | The level of expressed mRNA in the presence of chemical substance/The level of expressed mRNA in the absence of chemical substance (yeast gene YKL104C): 0.8 | level of expressed mRNA in the presence/in the absence of chemical substance (yeast gene YKL148C): 0.8 | The level of expressed mRNA in the presence of chemical substance/The level of expressed mRNA in the absence of chemical substance (yeast gene YKL152C): 1.0 | level of expressed mRNA in the presence/in the absence of chemical substance (yeast gene YKL157W): 0.8 | The level of expressed mRNA in the presence of chemical substance/The level of expressed mRNA in the absence of chemical substance (yeast gene YKL213C): 0.9 | The level of expressed mRNA in the presence of chemical substance/The level of expressed mRNA in the absence of chemical substance (yeast gene YKL215C): 1.0 | level of expressed mRNA in the presence/in the absence of chemical substance (yeast gene YKR034W): 1.1 | The level of expressed mRNA in the presence of chemical substance/The level of expressed mRNA in the absence of chemical substance (yeast gene YKR039W): 1.2 | The level of expressed mRNA in the presence of chemical substance/The level of expressed mRNA in the absence of chemical substance (yeast gene YLL058W): 0.8 | level of expressed mRNA in the presence/in the absence of chemical substance (yeast gene YLR006C): 1.0 | level of expressed mRNA in the presence/in the absence of chemical substance (yeast gene YLR044C): 0.5 | level of expressed mRNA in the presence/in the absence of chemical substance (yeast gene YLR056W): 0.7 | level of expressed mRNA in the presence/in the absence of chemical substance (yeast gene YLR058C): 0.7 | level of expressed mRNA in the presence/in the absence of chemical substance (yeast gene YLR081W): 1.0 | level of expressed mRNA in the presence/in the absence of chemical substance (yeast gene YLR089C): 0.7 | The level of expressed mRNA in the presence of chemical substance/The level of expressed mRNA in the absence of chemical substance (yeast gene YLR180W): 0.6 | The level of expressed mRNA in the presence of chemical substance/The level of expressed mRNA in the absence of chemical substance (yeast gene YLR273C): 1.3 | level of expressed mRNA in the presence/in the absence of chemical substance (yeast gene YLR284C): 1.3 | The level of expressed mRNA in the presence of chemical substance/The level of expressed mRNA in the absence of chemical substance (yeast gene YLR299W): 1.3 | The level of expressed mRNA in the presence of chemical substance/The level of expressed mRNA in the absence of chemical substance (yeast gene YLR300W): 0.6 | The level of expressed mRNA in the presence of chemical substance/The level of expressed mRNA in the absence of chemical substance (yeast gene YLR303W): 3.8 | level of expressed mRNA in the presence/in the absence of chemical substance (yeast gene YLR304C): 0.7 | The level of expressed mRNA in the presence of chemical substance/The level of expressed mRNA in the absence of chemical substance (yeast gene YLR307W): 1.9 | The level of expressed mRNA in the presence of chemical substance/The level of expressed mRNA in the absence of chemical substance (yeast gene YLR348C): 1.0 | level of expressed mRNA in the presence/in the absence of chemical substance (yeast gene YLR354C): 0.9 | level of expressed mRNA in the presence/in the absence of chemical substance (yeast gene YLR372W): 0.6 | level of expressed mRNA in the presence/in the absence of chemical substance (yeast gene YML022W): 0.9 | The level of expressed mRNA in the presence of chemical substance/The level of expressed mRNA in the absence of chemical substance (yeast gene YML054C): 2.1 | The level of expressed mRNA in the presence of chemical substance/The level of expressed mRNA in the absence of chemical substance (yeast gene YML070W): 1.3 | The level of expressed mRNA in the presence of chemical substance/The level of expressed mRNA in the absence of chemical substance (yeast gene YML100W): 1.2 | The level of expressed mRNA in the presence of chemical substance/The level of expressed mRNA in the absence of chemical substance (yeast gene YMR008C): 0.7 | level of expressed mRNA in the presence/in the absence of chemical substance (yeast gene YMR011W): 0.6 | level of expressed mRNA in the presence/in the absence of chemical substance (yeast gene YMR015C): 0.8 | The level of expressed mRNA in the presence of chemical substance/The level of expressed mRNA in the absence of chemical substance (yeast gene YMR020W): 1.1 | The level of expressed mRNA in the presence of chemical substance/The level of expressed mRNA in the absence of chemical substance (yeast gene YMR081C): 1.8 | level of expressed mRNA in the presence/in the absence of chemical substance (yeast gene YMR083W): 0.8 | The level of expressed mRNA in the presence of chemical substance/The level of expressed mRNA in the absence of chemical substance (yeast gene YMR105C): 1.0 | The level of expressed mRNA in the presence of chemical substance/The level of expressed mRNA in the absence of chemical substance (yeast gene YMR189W): 1.6 | level of expressed mRNA in the presence/in the absence of chemical substance (yeast gene YMR205C): 0.5 | level of expressed mRNA in the presence/in the absence of chemical substance (yeast gene YMR261C): 0.6 | The level of expressed mRNA in the presence of chemical substance/The level of expressed mRNA in the absence of chemical substance (yeast gene YMR271C): 1.8 | The level of expressed mRNA in the presence of chemical substance/The level of expressed mRNA in the absence of chemical substance (yeast gene YMR296C): 0.7 | level of expressed mRNA in the presence/in the absence of chemical substance (yeast gene YMR323W): 1.2 | The level of expressed mRNA in the presence of chemical substance/The level of expressed mRNA in the absence of chemical substance (yeast gene YNL012W): 1.0 | level of expressed mRNA in the presence/in the absence of chemical substance (yeast gene YNL025C): 1.2 | The level of expressed mRNA in the presence of chemical substance/The level of expressed mRNA in the absence of chemical substance (yeast gene YNL037C): 1.3 | The level of expressed mRNA in the presence of chemical substance/The level of expressed mRNA in the absence of chemical substance (yeast gene YNL045W): 0.8 | The level of expressed mRNA in the presence of chemical substance/The level of expressed mRNA in the absence of chemical substance (yeast gene YNL104C): 0.9 | The level of expressed mRNA in the presence of chemical substance/The level of expressed mRNA in the absence of chemical substance (yeast gene YNL106C): 1.1 | The level of expressed mRNA in the presence of chemical substance/The level of expressed mRNA in the absence of chemical substance (yeast gene YNL169C): 0.9 | level of expressed mRNA in the presence/in the absence of chemical substance (yeast gene YNL192W): 0.7 | The level of expressed mRNA in the presence of chemical substance/The level of expressed mRNA in the absence of chemical substance (yeast gene YNL231C): 0.9 | The level of expressed mRNA in the presence of chemical substance/The level of expressed mRNA in the absence of chemical substance (yeast gene YNL322C): 1.2 | The level of expressed mRNA in the presence of chemical substance/The level of expressed mRNA in the absence of chemical substance (yeast gene YNL331C): 7.5 | The level of expressed mRNA in the presence of chemical substance/The level of expressed mRNA in the absence of chemical substance (yeast gene YNL332W): 3.0 | The level of expressed mRNA in the presence of chemical substance/The level of expressed mRNA in the absence of chemical substance (yeast gene YNR002C): 1.2 | The level of expressed mRNA in the presence of chemical substance/The level of expressed mRNA in the absence of chemical substance (yeast gene YNR019W): 1.0 | The level of expressed mRNA in the presence of chemical substance/The level of expressed mRNA in the absence of chemical substance (yeast gene YNR033W): 0.9 | The level of expressed mRNA in the presence of chemical substance/The level of expressed mRNA in the absence of chemical substance (yeast gene YNR059W): 1.0 | The level of expressed mRNA in the presence of chemical substance/The level of expressed mRNA in the absence of chemical substance (yeast gene YOL058W): 1.5 | level of expressed mRNA in the presence/in the absence of chemical substance (yeast gene YOL086C): 0.6 | level of expressed mRNA in the presence/in the absence of chemical substance (yeast gene YOL108C): 0.9 | level of expressed mRNA in the presence/in the absence of chemical substance (yeast gene YOL116W): 0.9 | The level of expressed mRNA in the presence of chemical substance/The level of expressed mRNA in the absence of chemical substance (yeast gene YOL126C): 1.2 | The level of expressed mRNA in the presence of chemical substance/The level of expressed mRNA in the absence of chemical substance (yeast gene YOL151W): 4.0 | The level of expressed mRNA in the presence of chemical substance/The level of expressed mRNA in the absence of chemical substance (yeast gene YOL153C): 1.5 | level of expressed mRNA in the presence/in the absence of chemical substance (yeast gene YOL156W): 0.9 | The level of expressed mRNA in the presence of chemical substance/The level of expressed mRNA in the absence of chemical substance (yeast gene YOL165C): 9.1 | level of expressed mRNA in the presence/in the absence of chemical substance (yeast gene YOR002W): 0.9 | level of expressed mRNA in the presence/in the absence of chemical substance (yeast gene YOR085W): 0.7 | The level of expressed mRNA in the presence of chemical substance/The level of expressed mRNA in the absence of chemical substance (yeast gene YOR099W): 0.7 | level of expressed mRNA in the presence/in the absence of chemical substance (yeast gene YOR103C): 1.2 | level of expressed mRNA in the presence/in the absence of chemical substance (yeast gene YOR108W): 0.9 | level of expressed mRNA in the presence/in the absence of chemical substance (yeast gene YOR128C): 0.7 | The level of expressed mRNA in the presence of chemical substance/The level of expressed mRNA in the absence of chemical substance (yeast gene YOR130C): 1.3 | level of expressed mRNA in the presence/in the absence of chemical substance (yeast gene YOR142W): 0.8 | level of expressed mRNA in the presence/in the absence of chemical substance (yeast gene YOR176W): 0.8 | level of expressed mRNA in the presence/in the absence of chemical substance (yeast gene YOR178C): 1.0 | level of expressed mRNA in the presence/in the absence of chemical substance (yeast gene YOR251C): 1.1 | The level of expressed mRNA in the presence of chemical substance/The level of expressed mRNA in the absence of chemical substance (yeast gene YOR336W): 1.1 | The level of expressed mRNA in the presence of chemical substance/The level of expressed mRNA in the absence of chemical substance (yeast gene YOR347C): 0.9 | level of expressed mRNA in the presence/in the absence of chemical substance (yeast gene YOR348C): 1.2 | The level of expressed mRNA in the presence of chemical substance/The level of expressed mRNA in the absence of chemical substance (yeast gene YPL017C): 1.6 | level of expressed mRNA in the presence/in the absence of chemical substance (yeast gene YPL028W): 0.8 | level of expressed mRNA in the presence/in the absence of chemical substance (yeast gene YPL057C): 0.7 | level of expressed mRNA in the presence/in the absence of chemical substance (yeast gene YPL135W): 1.1 | level of expressed mRNA in the presence/in the absence of chemical substance (yeast gene YPL148C): 1.6 | The level of expressed mRNA in the presence of chemical substance/The level of expressed mRNA in the absence of chemical substance (yeast gene YPR026W): 1.5 | level of expressed mRNA in the presence/in the absence of chemical substance (yeast gene YPR113W): 1.3 | level of expressed mRNA in the presence/in the absence of chemical substance (yeast gene YPR165W): 1.0 | The level of expressed mRNA in the presence of chemical substance/The level of expressed mRNA in the absence of chemical substance (yeast gene YPR167C): 4.2 | level of expressed mRNA in the presence/in the absence of chemical substance (yeast gene YPR183W): 0.7
